Several values for one entry are separate records, joined by “and”; a condition that tells them apart may be missing. Identical values can stand only once. Toxic doses and inconclusive results are not listed.
Tested on: P388 leukemia ip, CD2F1 mice, survival T/C
Experiment: NCI In Vivo Anticancer Drug Screen. Data for tumor model P388 Leukemia (intraperitoneal) in CD2F1 (CDF1) mice
Conditions: endpoint: median survival time, higher = longer survival
Summary of the method: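 Mice carrying the transplanted tumor received test compound or vehicle. Survival was recorded in each group, and the value is the treated-group measurement divided by that of the vehicle-treated control group.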

[1] = dose: 50.0 mg/kg/injection, schedule: Q01DX005 (ip), vehicle: saline
[2] = dose: 100.0 mg/kg/injection, schedule: Q01DX005 (ip), vehicle: saline
[3] = dose: 12.5 mg/kg/injection, schedule: Q01DX009 (ip), vehicle: Klucel (hydroxypropylcellulose) (HPC)
[4] = dose: 25.0 mg/kg/injection, schedule: Q01DX009 (ip), vehicle: Klucel (hydroxypropylcellulose) (HPC)
[5] = dose: 25.0 mg/kg/injection, schedule: Q01DX005 (ip), vehicle: saline with Tween-80
[6] = dose: 60.0 mg/kg/injection, schedule: Q01DX005 (ip), vehicle: saline with Tween-80
[7] = dose: 120.0 mg/kg/injection, schedule: Q01DX005 (ip), vehicle: saline with Tween-80
[8] = dose: 240.0 mg/kg/injection, schedule: Q01DX005 (ip), vehicle: saline with Tween-80
[9] = dose: 50.0 mg/kg/injection, schedule: Q01DX005 (ip), vehicle: saline with Tween-80
[10] = dose: 100.0 mg/kg/injection, schedule: Q01DX005 (ip), vehicle: saline with Tween-80
[11] = dose: 200.0 mg/kg/injection, schedule: Q01DX005 (ip), vehicle: saline with Tween-80

Compound: CCOC1(C)OC2OC(COC(c3ccccc3)(c3ccccc3)c3ccccc3)C(O)C(O)C2O1 (configuration not stated)
- T/C (dose: 12.5 mg/kg/injection, schedule: Q01DX009 (ip), vehicle: other): 97 % of control
- T/C (dose: 25.0 mg/kg/injection, schedule: Q01DX009 (ip), vehicle: other): 97 % of control
- T/C (dose: 50.0 mg/kg/injection, schedule: Q01DX009 (ip), vehicle: other): 95 % of control
- T/C (dose: 100.0 mg/kg/injection, schedule: Q01DX009 (ip), vehicle: other): 98 % of control
- T/C (dose: 200.0 mg/kg/injection, schedule: Q01DX009 (ip), vehicle: other): 98 % of control

Compound: NNP(=S)(NN)Oc1ccccc1
- T/C (dose: 6.25 mg/kg/injection, schedule: Q01DX005 (ip), vehicle: Klucel (hydroxypropylcellulose) (HPC)): 96 % of control
- T/C (dose: 12.5 mg/kg/injection, schedule: Q01DX005 (ip), vehicle: Klucel (hydroxypropylcellulose) (HPC)): 114 % of control
- T/C (dose: 25.0 mg/kg/injection, schedule: Q01DX005 (ip), vehicle: Klucel (hydroxypropylcellulose) (HPC)): 105 % of control

Compound: CC[N+](C)(CC)C/C(C)=C(/c1ccccc1S(=O)(=O)N(C)C)C(C)C[N+](C)(CC)CC (configuration not stated)
- T/C (dose: 12.5 mg/kg/injection, schedule: Q04DX003 (ip), vehicle: saline): 102 % of control
- T/C (dose: 25.0 mg/kg/injection, schedule: Q04DX003 (ip), vehicle: saline): 103 % of control

Compound: CN(C)CCN1c2ccccc2Oc2ccccc21
- T/C [1]: 104 % of control
- T/C [2]: 95 % of control

Compound: OC1c2ccccc2-c2ccccc2C1O (configuration not stated)
- T/C (dose: 100.0 mg/kg/injection, schedule: Q04DX002 (ip), vehicle: saline with Tween-80): 101 % of control and 102 % of control
- T/C (dose: 200.0 mg/kg/injection, schedule: Q04DX002 (ip), vehicle: saline with Tween-80): 101 % of control and 97 % of control
- T/C (dose: 400.0 mg/kg/injection, schedule: Q04DX002 (ip), vehicle: saline with Tween-80): 101 % of control

Compound: CCOC(=O)CSc1nnc(N)s1
- T/C (dose: 50.0 mg/kg/injection, schedule: Q01DX009 (ip), vehicle: saline with Tween-80): 121 % of control
- T/C (dose: 100.0 mg/kg/injection, schedule: Q01DX009 (ip), vehicle: saline with Tween-80): 116 % of control
- T/C (dose: 200.0 mg/kg/injection, schedule: Q01DX009 (ip), vehicle: saline with Tween-80): 98 % of control

Compound: CN1CCCSC1=S
- T/C (dose: 6.25 mg/kg/injection, schedule: Q01DX009 (ip), vehicle: Klucel (hydroxypropylcellulose) (HPC)): 111 % of control
- T/C [3]: 97 % of control
- T/C [4]: 106 % of control

Compound: O=C1CN(c2ccccc2)CC(=O)N2Cc3ccccc3CN12
- T/C (dose: 6.25 mg/kg/injection, schedule: Q01DX005 (ip), vehicle: saline with Tween-80): 96 % of control
- T/C (dose: 12.5 mg/kg/injection, schedule: Q01DX005 (ip), vehicle: saline with Tween-80): 100 % of control
- T/C [5]: 98 % of control

Compound: NC(=O)C(F)(F)C(F)(F)C(N)=O
- T/C [6]: 107 % of control
- T/C [7]: 112 % of control
- T/C [8]: 104 % of control

Compound: Cc1cc(Cl)cc(C(=O)c2ccccc2)c1OC(N)=O
- T/C (dose: 50.0 mg/kg/injection, schedule: Q01DX005 (ip), vehicle: Klucel (hydroxypropylcellulose) (HPC)): 101 % of control
- T/C (dose: 100.0 mg/kg/injection, schedule: Q01DX005 (ip), vehicle: Klucel (hydroxypropylcellulose) (HPC)): 103 % of control
- T/C (dose: 200.0 mg/kg/injection, schedule: Q01DX005 (ip), vehicle: Klucel (hydroxypropylcellulose) (HPC)): 106 % of control

Compound: COc1ccc(S(=O)(=O)c2coc3ccccc3c2=O)cc1
- T/C [6]: 110 % of control
- T/C [7]: 103 % of control
- T/C [8]: 96 % of control

Compound: FC(F)(F)c1ccccc1C(Nc1nncs1)Nc1nncs1
- T/C [9]: 97 % of control
- T/C [10]: 101 % of control
- T/C [11]: 107 % of control

Compound: COc1cccc2c1C(=O)c1c(O)c3c(c(O)c1C2=O)C[C@@](O)(C(C)=O)[C@@H](OC)[C@@H]3OC1CC(N)C(O)C(C)O1 (some centres not stated)
- T/C (dose: 0.6 mg/kg/injection, schedule: Q04DX003 (ip), vehicle: water): 103 % of control
- T/C (dose: 1.2 mg/kg/injection, schedule: Q04DX003 (ip), vehicle: water): 122 % of control
- T/C (dose: 2.4 mg/kg/injection, schedule: Q04DX003 (ip), vehicle: water): 108 % of control
- T/C (dose: 2.5 mg/kg/injection, schedule: Q04DX003 (ip), vehicle: water): 108 % of control
- T/C (dose: 4.8 mg/kg/injection, schedule: Q04DX003 (ip), vehicle: water): 123 % of control
- T/C (dose: 5.0 mg/kg/injection, schedule: Q04DX003 (ip), vehicle: water): 108 % of control

Compound: CN1CCN(C)C(=O)C1=O
- T/C (dose: 12.5 mg/kg/injection, schedule: Q04DX003 (ip), vehicle: suspension in saline): 108 % of control
- T/C (dose: 25.0 mg/kg/injection, schedule: Q04DX003 (ip), vehicle: suspension in saline): 115 % of control
- T/C (dose: 50.0 mg/kg/injection, schedule: Q04DX003 (ip), vehicle: suspension in saline): 110 % of control

Compound: CS(=O)(=O)CS(=O)(=O)OCCF
- T/C (dose: 12.5 mg/kg/injection, schedule: Q01DX005 (ip), vehicle: saline): 188 % of control
- T/C (dose: 25.0 mg/kg/injection, schedule: Q01DX005 (ip), vehicle: saline): 258 % of control and 285 % of control
- T/C [1]: 285 % of control

Compound: S=C(Nc1ccc2c(c1)OCO2)SCc1ccc(Cl)c(Cl)c1
- T/C [3]: 91 % of control
- T/C [4]: 105 % of control
- T/C (dose: 50.0 mg/kg/injection, schedule: Q01DX009 (ip), vehicle: Klucel (hydroxypropylcellulose) (HPC)): 107 % of control
- T/C (dose: 50.0 mg/kg/injection, schedule: Q01DX009 (ip), vehicle: saline): 106 % of control
- T/C (dose: 50.0 mg/kg/injection, schedule: Q01DX009 (ip), vehicle: suspension in saline): 103 % of control
- T/C (dose: 100.0 mg/kg/injection, schedule: Q01DX009 (ip), vehicle: saline): 108 % of control
- T/C (dose: 100.0 mg/kg/injection, schedule: Q01DX009 (ip), vehicle: suspension in saline): 93 % of control
- T/C (dose: 200.0 mg/kg/injection, schedule: Q01DX009 (ip), vehicle: saline): 118 % of control
- T/C (dose: 200.0 mg/kg/injection, schedule: Q01DX009 (ip), vehicle: suspension in saline): 98 % of control

Compound: CN(C)c1ccc(C(=C2C=CC(=[N+](C)C)C=C2)c2ccc(N(C)C)cc2)cc1
- T/C (dose: 0.19 mg/kg/injection, schedule: Q01DX009 (ip), vehicle: saline): 108 % of control
- T/C (dose: 0.39 mg/kg/injection, schedule: Q01DX009 (ip), vehicle: saline): 123 % of control

Compound: Cc1c(C)[n+](=O)c2ccccc2n1[O-]
- T/C [1]: 103 % of control
- T/C [2]: 108 % of control
- T/C (dose: 200.0 mg/kg/injection, schedule: Q01DX005 (ip), vehicle: saline): 100 % of control

Compound: CNC(=O)OCc1c(-c2ccccc2)c(-c2ccccc2)n(-c2ccccc2)c1COC(=O)NC
- T/C (dose: 12.5 mg/kg/injection, schedule: Q01DX009 (ip), vehicle: distilled water + Tween-80): 110 % of control
- T/C (dose: 25.0 mg/kg/injection, schedule: Q01DX009 (ip), vehicle: distilled water + Tween-80): 112 % of control and 117 % of control
- T/C (dose: 100.0 mg/kg/injection, schedule: Q01DX009 (ip), vehicle: distilled water + Tween-80): 155 % of control
- T/C (dose: 200.0 mg/kg/injection, schedule: Q01DX009 (ip), vehicle: distilled water + Tween-80): 171 % of control and 175 % of control

Compound: Cc1cc(C)n(-c2ccnc(-n3nc(C)cc3C)n2)n1
- T/C (dose: 100.0 mg/kg/injection, schedule: Q04DX003 (ip), vehicle: saline): 104 % of control
- T/C (dose: 200.0 mg/kg/injection, schedule: Q04DX003 (ip), vehicle: saline): 114 % of control
- T/C (dose: 400.0 mg/kg/injection, schedule: Q04DX003 (ip), vehicle: saline): 101 % of control

Compound: O=C1SC(=NC2CCCCC2)N(C2CCCCC2)/C1=C1\C(=O)SC(=NC2CCCCC2)N1C1CCCCC1
- T/C (dose: 15.0 mg/kg/injection, schedule: Q01DX005 (ip), vehicle: saline with Tween-80): 92 % of control
- T/C (dose: 30.0 mg/kg/injection, schedule: Q01DX005 (ip), vehicle: saline with Tween-80): 90 % of control

Compound: C[C@]12CC[C@H](O)C[C@@]1(O)CC[C@@H]1[C@@H]2CC[C@]2(C)[C@@H](c3ccc(=O)oc3)C[C@H]3O[C@]132
- T/C (dose: 1.25 mg/kg/injection, schedule: Q01DX005 (ip), vehicle: saline + alcohol): 107 % of control
- T/C (dose: 2.5 mg/kg/injection, schedule: Q01DX005 (ip), vehicle: saline + alcohol): 104 % of control
- T/C (dose: 5.0 mg/kg/injection, schedule: Q01DX005 (ip), vehicle: saline + alcohol): 116 % of control
- T/C (dose: 10.0 mg/kg/injection, schedule: Q01DX005 (ip), vehicle: saline + alcohol): 94 % of control

Compound: O=[N+]([O-])c1cccc(/C=C/S(=O)(=O)Cc2ccccc2)c1
- T/C [9]: 101 % of control
- T/C [10]: 100 % of control
- T/C [11]: 92 % of control

Compound: C=C(c1ccc2nc(NC(=O)OC)[nH]c2c1)c1cccs1
- T/C [5]: 108 % of control
- T/C [9]: 99 % of control
- T/C [10]: 98 % of control
- T/C [11]: 100 % of control
